Tests used:
[1] = Rat intestinal perfusion test (in situ), effective intestinal permeability Peff; type: in vivo; settings: for Peff ODV Fumarate: 50 μg/ml in pH 6.8 perfusion buffer
Description: O-desmethyl venlafaxine formate was evaluated for oral absorption characteristics. The rat intestinal perfusion model was used.
Rat Intestinal Perfusion Test
(§1) The rat intestine perfusion technique is a direct way to measure the regional absorption properties of a test compound in the gastrointestinal tract. Rat intestinal permeability coefficient (Peff) can be used to predict human in vivo oral absorption of passively absorbed compounds. Fagerholm, M. Johansson, and H. Lennernäs, ? Comparison between permeability coefficients in rat and human jejunum”, Pharm. […] Other characteristics such as formulable Maximum Absorbable Dose (MAD), FDA Biopharmaceutical Classification, etc. can also be estimated.
Perfusion buffer (PB) consisted of KC1 (5.4 mM), NaC1 (48 mM), Na2HPO4 (28 mM), NaH2PO4 (43 mM), mannitol (35 mM), polyethylene glycol (PEG)-4000 (0.1%, w/v), glucose (10 mM). The pH was adjusted to 6.8 with NaOH and osmolarity was adjusted to 290+10 mOsm/l with 1.0 M NaC1. Before the experiment, ^14C-PEC-4000 (0.02 μCi/mL), 3H-mannitol (0.025 μCi/mL), metoprolol (20 μg/mL), and ODV formate or fumarate (50 μg/mL) were added.
Rats used in this study were Charles River CD males, ranging in weight from approximately 300–350 grams.
Metoprolol (a well-absorbed and passively transported compound) was used as a standard and tested simultaneously along with the ODV compounds. Glucose (a well-absorbed and actively transported compound) was used to monitor the physiological functionality of the intestinal barriers. ^14C-labeled PEG-4000 was used as a non-absorbable marker to describe the water flux across the intestinal wall. ^3H-labeled mannitol was used as a paracellularly transported marker to indicate the integrity of the intestinal tight junctions.
All chemicals were of analytical grade. After each experiment, all the analytical assays were performed promptly. For isotope determinations, 0.5 mL of perfusate sample containing ^14C PEG-4000 and ^3H-mannitol was mixed with 5 mL of scintillation cocktail. Radioactivity was counted in a liquid scintillation counter (Wallac 1409). Glucose concentration was determined by the glucose oxidase method (Biochemistry Analyzer). Metoprolol and the ODV compounds were analyzed by HPLC-UV/Vis (HP-1100 with a diode-array detector), using a YMC AQ 120μ, 5μ, 150×4.6 mm column and step gradient mobile phase containing water/0.1% TFA and acetonitrile. The ODV compounds and metoprolol were detected at 226 and 272 nm UV wavelength, respectively. Blank perfusate was assayed to evaluate the interference at these chromatographic conditions.
The perfusions were performed in three intestinal sections of anesthetized rats: duodenum-jejunum, ileum, and colon. The lengths of the segments were approximately 10–12 cm for small intestine segments and 5–6 cm for colon segments. An inflow cannula was inserted at the proximal end and an outflow cannula was inserted at the distal end. Perfusate was pumped through the segment at 0.19 mL/min, and collected at 20, 40, 55, 70, 85 and 100 minutes.
ODV formate or fumarate was added to the perfusion working buffer at a concentration of 50 μg/mL, which is approximately equivalent to a 200 mg human dose. The disappearance rates of ODV compound, metoprolol, and glucose were determined from each collection interval by comparing to the initial compound solution remaining in the syringe at the end of the 100 minutes. This is to correct for any losses due to binding to the syringe or tubing. Meanwhile, drug concentration in perfusate samples were corrected for water influx/efflux, which was computed, based on ^14C-PEG-4000 concentration changes.
Recovery of ^14C-PEG-4000 was determined to provide information on the integrity of the perfused intestinal segment: % PEGrec=(ΣPEGout/ΣPEGin)*100
Overall ^14C-PEG-4000 recovery was calculated and any data for which the individual recovery fell outside of the range of 96%–103% was excluded from the data set. […]

[2] = test system: Histamine H1; settings: cited from earlier work
[3] = test system: Dopamine reuptake; settings: in vitro; read-out: Inhibition of amine reuptake (IC50): Dopamine; cited from earlier work
[4] = test system: Cholinergic; settings: cited from earlier work
[5] = test system: Serotonin reuptake; settings: in vitro; read-out: Inhibition of amine reuptake (IC50): Serotonin; cited from earlier work
[6] = test system: D2; settings: cited from earlier work
[7] = test system: Adrenergic a; settings: cited from earlier work
[8] = test system: Opiate; settings: cited from earlier work
[9] = in vivo, i.p.; cited from earlier work
[10] = test system: Norepinephrine reuptake; settings: in vitro; read-out: Inhibition of amine reuptake (IC50): Norepinephrine; cited from earlier work
[11] = Human fraction of dose absorbed (Fa) predicted from rat Peff; settings: for human in vivo Fa (fraction of dose absorbed), estimated: small intestine
Text: as §1
The fraction of dose absorbed, Fa, in human is currently predicted from (Fagerholm, M. ibid: Fa=100*(1−e^−(2*(Peff,rat+β)*(tres/r)) where […] are the correction factors, tres is the residence time in human small intestine; and r is the radius of the human small intestine. Results Rat Jejunal Perfusion Results Site-Specific Absorption of ODV Formate

[12] = Solubility in water; type: physicochemical; settings: 26 °C, room temperature (about 25 to 27° C.)
Text: High solubility and high oral absorption are desireable characteristics of a drug, making this salt form of O desmethyl venlafaxine a particularly useful form of O-desmethyl venlafaxine.

[13] = male, CD, in vivo, 100 min, 50 μg/mL, pH 6.8

Structure (SMILES): COCCc1ccc(OCC(O)CNC(C)C)cc1 (centres unmarked) [Metoprolol]
- Peff Metoprolol ([1]; colon, metoprolol 20 μg/mL tested simultaneously with ODV formate): 0.583 ± 0.087 10^−5 cm/sec
- Peff Metoprolol ([1]; colon, metoprolol 20 μg/mL tested simultaneously with ODV fumarate): 11 10^−5 cm/sec
- Peff Metoprolol ([1]; ileum, metoprolol 20 μg/mL tested simultaneously with ODV formate): 3.22 ± 0.07 10^−5 cm/sec
- Peff Metoprolol ([1]; ileum, metoprolol 20 μg/mL tested simultaneously with ODV fumarate): 5.3 10^−5 cm/sec
- Peff Metoprolol ([1]; jejunum, metoprolol 20 μg/mL tested simultaneously with ODV formate): 2.50 ± 0.11 10^−5 cm/sec
- Peff Metoprolol ([1]; jejunum, metoprolol 20 μg/mL tested simultaneously with ODV fumarate): 1.78 ± 0.93 10^−5 cm/sec

Structure (SMILES): CN(C)CC(c1ccc(O)cc1)C1(O)CCCCC1 (centres unmarked) [O-desmethylvenlafaxine, 1-[2-(dimethylamino)-1-(4-phenol)ethyl]cyclohexanol]
- Affinity for Various Neuroreceptors (% inhibition at 1 uM): Histamine H1 [2]: 0%
- IC50 [3]: 13.4 µM
- Affinity for Various Neuroreceptors (% inhibition at 1 uM): Cholinergic [4]: 7%
- IC50 [5]: 0.18 µM
- Affinity for Various Neuroreceptors (% inhibition at 1 uM): D2 [6]: 6%
- Affinity for Various Neuroreceptors (% inhibition at 1 uM): Adrenergic a [7]: 0%
- Affinity for Various Neuroreceptors (% inhibition at 1 uM): Opiate [8]: 7%
- Reversal of Reserpine-Induce Hypothermia (minimum effect) [9]: 3 mg/kg i.p.
- IC50 [10]: 1.16 µM

Structure (SMILES): CN(C)CC(c1ccc(O)cc1)C1(O)CCCCC1.O=CO (centres unmarked) [ODV formate, O-desmethylvenlafaxine formate]
- human in vivo Fa (fraction of dose absorbed), estimated [11]: about 80%
- Peff as percent of metoprolol's Peff value [1, 13]: about 12%
- Peff values in the small intestine [1, 13]: 1.34–2.18 10^−5 cm/sec
- solubility [12]: > 425 mg/mL

Structure (SMILES): CN(C)CC(c1ccc(O)cc1)C1(O)CCCCC1.O=C(O)/C=C/C(=O)O (centres unmarked) [ODV fumarate]
- in vivo Fa (fraction of dose absorbed), estimated ([11]; colon): 0%
- human in vivo Fa (fraction of dose absorbed), estimated [11]: 33–45%
- Absorption in the colon ([1]; colon): no measurable absorption
- Peff ODV Fumarate / Peff Metoprolol ([1]; colon): 0
- Peff ODV Fumarate ([1]; colon): 0 10^−5 cm/sec
- Peff ODV Fumarate / Peff Metoprolol ([1]; ileum): 0.19 ± 0.06
- Peff ODV Fumarate ([1]; ileum): 0.678 ± 0.295 10^−5 cm/sec
- Peff ODV Fumarate / Peff Metoprolol ([1]; jejunum): 0.09
- Peff ODV Fumarate ([1]; jejunum): 0.245 10^−5 cm/sec
- Peff values in the small intestine ([1]; small intestine (jejunum to ileum)): 0.24–0.68 10^−5 cm/sec

Source: patent US7001920B2, “Formate salt of O-desmethyl-venlafaxine” (Wyeth, priority 2002, dated 2006)
